Test results from patent US20080004302A1, “Novel Compounds” (ASTRAZENECA AB, priority 2006, published 2008).
Where a name gives a salt, the structure may show the parent alone. Read-outs that look alike come from different tables or passages of the source.

Assays:
[1] = biological target: T1, FGFR1 IIIc (Homo sapiens, UniProt P11362); experiment: Cell based inhibition of transiently expressed FGFR1 IIIc phosphorylation via use of ECHO technology (Cos-1 cells)
T1 construct: host or cells: Cos-1

[2] = biological target: T2, FGFR kinase domain (Homo sapiens, UniProt P11362, C488A/C584S); experiment: Kinase assay (ELISA) for inhibition of FGFR activity; type: biochemical; settings: FGFR inhibition tests, ELISA kinase assay; read-out: Activity class
T2 construct: FGFR kinase domain (amino acids 458-765, C488A, C584S) N-terminally fused to a His6-tag; made in house
Experimental: To determine inhibition of FGFR activity, kinase assays were conducted using ELISA (Enzyme-Linked Immunosorbent Assay) technology.
Kinase activity assays were performed in 384-well polypropylene plates (Matrix, 4311) with a total volume of 40 μl in each well. Each well was coated with 2 μg of polyEAY substrate (Sigma, P3899) at 4° C. overnight. The plates were then washed once with 100 μl PBS and once with 100 μl 50 mM HEPES (pH 7.4) prior to the addition of the kinase assay reagents. […] Various concentrations of test compounds were each added in 5% (v/v) DMSO to yield a final assay DMSO concentration of 1.25% (v/v). The kinase reactions were incubated at room temperature for 45 minutes and stopped by washing the plate three times with 100 μl PBS plus 0.05% Tween. […] Following this, the plates were then washed repeatedly with 100 μl PBS plus 0.05% Tween to remove all traces of the antibody solution. 40 μl of 50 μg/ml 3,3′,5,5′-Tetramethylbenzidine (Sigma, T2885), 0.05M phosphate-citrate buffer, containing 0.03% sodium perborate was added to each well and the plates incubated at room temperature for twelve minutes. The colour reaction was stopped by the addition of 20 μl 2M H2SO4 and the plates read at 450 nm on a Spectrafluor Plus (Tecan).

[3] = biological target: FGFR1 kinase (Homo sapiens, UniProt P11362); experiment: Kinase assay (using Caliper technology); type: biochemical
Summary of the method: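 Human FGFR1 kinase activity measured with a 13-mer fluorescently tagged FGFR1-specific peptide substrate; compounds serially diluted in 5% (v/v) DMSO. Reactions ran 1.5 h at room temperature, stopped with EDTA-containing HEPES pH 7.5 buffer. Phosphorylated and unphosphorylated peptide separated by microfluidic mobility shift.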

[4] = system: Erk phosphorylation; experiment: Growth factor (bFGF) stimulated Erk phosphorylation in NIH 3T3 cells; settings: Mus musculus, NIH3T3, NIH 3T3 cells, 3 ng/ml bFGF
[5] = biological target: T3, human IGF1R (Homo sapiens, UniProt P08069); experiment: Inhibition of insulin-like growth factor-1 receptor phosphorylation in R+ cells; type: cell-based; settings: 30 nM IGF1, read-out: IGF cell class
T3 construct: expressed in transfected cells; host or cells: R+ cells (R- mouse fibroblasts transfected with human IGF1R)

[6] = biological target: T1, FGFR1 IIIc; experiment: Cell based inhibition of transiently expressed FGFR1 IIIc phosphorylation (Cos-1 cells)
Experimental: This assay is designed to detect inhibitors of transiently expressed FGFR1 phosphorylation by antibody staining of fixed cells detected using ArrayScan technology.
To undertake the assay, Cos-1 cells were harvested at 90-95% confluence for cell transfection. For each 96-well plate, 24 ul Lipofectamine 2000 was added to 809 ul OptiMEM and incubated at room temperature for 5 minutes. […] Equal volumes of DNA and Lipofectamine 2000 were combined (DNA: Lipid=1:1.2 ratio) and incubated at room temperature for 20 minutes.
The harvested Cos-1 cells are counted using a coulter counter and diluted further with 1% FCS/DMEM to 2.5×10^5 cells/ml. For each 96-well, 8.33 ml cells were required. […] Media was removed from the wells using vacuum aspiration; cells were fixed by adding 50μl of 100% methanol to each well and incubated at room temperature for 20 minutes.
The plates were read on an Arrayscan (Cellomics).

[7] = Cos-1 cells, phospho-FGFR1, ECHO dosing, upper bound of bin, read-out: IC50
[8] = FGFR1 kinase, Caliper, upper bound of bin, read-out: IC50
[9] = Cos-1 cells, phospho-FGFR1, upper bound of bin, read-out: IC50

T3 sequence (P08069 31-1367): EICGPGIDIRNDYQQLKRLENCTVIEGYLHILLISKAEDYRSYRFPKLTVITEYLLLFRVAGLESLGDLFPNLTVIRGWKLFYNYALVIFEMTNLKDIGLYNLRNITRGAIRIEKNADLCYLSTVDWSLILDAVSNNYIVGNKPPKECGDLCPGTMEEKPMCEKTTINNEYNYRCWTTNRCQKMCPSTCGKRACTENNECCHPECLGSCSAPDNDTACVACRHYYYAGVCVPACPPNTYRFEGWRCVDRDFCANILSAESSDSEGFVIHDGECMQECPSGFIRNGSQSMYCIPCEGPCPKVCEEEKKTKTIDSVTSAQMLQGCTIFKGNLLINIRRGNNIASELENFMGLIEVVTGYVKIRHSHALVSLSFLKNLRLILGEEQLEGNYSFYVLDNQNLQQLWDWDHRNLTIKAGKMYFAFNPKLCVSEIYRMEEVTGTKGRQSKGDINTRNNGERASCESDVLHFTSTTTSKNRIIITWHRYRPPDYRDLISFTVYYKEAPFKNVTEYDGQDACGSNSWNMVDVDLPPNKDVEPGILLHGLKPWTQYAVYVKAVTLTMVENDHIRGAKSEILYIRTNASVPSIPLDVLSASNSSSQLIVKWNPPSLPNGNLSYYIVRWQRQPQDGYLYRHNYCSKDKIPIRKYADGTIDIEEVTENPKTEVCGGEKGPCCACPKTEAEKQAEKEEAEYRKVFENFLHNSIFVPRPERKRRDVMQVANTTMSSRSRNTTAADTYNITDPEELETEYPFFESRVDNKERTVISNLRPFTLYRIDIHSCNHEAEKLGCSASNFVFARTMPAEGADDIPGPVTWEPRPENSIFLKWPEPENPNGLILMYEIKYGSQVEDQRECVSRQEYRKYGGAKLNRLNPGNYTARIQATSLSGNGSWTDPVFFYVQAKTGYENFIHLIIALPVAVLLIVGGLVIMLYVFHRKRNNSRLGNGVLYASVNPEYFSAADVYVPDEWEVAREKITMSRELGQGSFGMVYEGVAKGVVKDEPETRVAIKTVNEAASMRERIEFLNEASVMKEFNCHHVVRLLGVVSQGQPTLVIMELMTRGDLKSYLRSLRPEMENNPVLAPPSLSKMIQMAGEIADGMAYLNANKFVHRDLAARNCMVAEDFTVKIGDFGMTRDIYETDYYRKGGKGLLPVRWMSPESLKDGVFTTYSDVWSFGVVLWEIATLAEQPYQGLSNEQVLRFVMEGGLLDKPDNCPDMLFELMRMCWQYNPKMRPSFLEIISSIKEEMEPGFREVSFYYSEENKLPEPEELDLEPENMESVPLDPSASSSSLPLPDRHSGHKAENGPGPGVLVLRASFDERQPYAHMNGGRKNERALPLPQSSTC
Sequence of FGFR1 kinase (P11362 22-822): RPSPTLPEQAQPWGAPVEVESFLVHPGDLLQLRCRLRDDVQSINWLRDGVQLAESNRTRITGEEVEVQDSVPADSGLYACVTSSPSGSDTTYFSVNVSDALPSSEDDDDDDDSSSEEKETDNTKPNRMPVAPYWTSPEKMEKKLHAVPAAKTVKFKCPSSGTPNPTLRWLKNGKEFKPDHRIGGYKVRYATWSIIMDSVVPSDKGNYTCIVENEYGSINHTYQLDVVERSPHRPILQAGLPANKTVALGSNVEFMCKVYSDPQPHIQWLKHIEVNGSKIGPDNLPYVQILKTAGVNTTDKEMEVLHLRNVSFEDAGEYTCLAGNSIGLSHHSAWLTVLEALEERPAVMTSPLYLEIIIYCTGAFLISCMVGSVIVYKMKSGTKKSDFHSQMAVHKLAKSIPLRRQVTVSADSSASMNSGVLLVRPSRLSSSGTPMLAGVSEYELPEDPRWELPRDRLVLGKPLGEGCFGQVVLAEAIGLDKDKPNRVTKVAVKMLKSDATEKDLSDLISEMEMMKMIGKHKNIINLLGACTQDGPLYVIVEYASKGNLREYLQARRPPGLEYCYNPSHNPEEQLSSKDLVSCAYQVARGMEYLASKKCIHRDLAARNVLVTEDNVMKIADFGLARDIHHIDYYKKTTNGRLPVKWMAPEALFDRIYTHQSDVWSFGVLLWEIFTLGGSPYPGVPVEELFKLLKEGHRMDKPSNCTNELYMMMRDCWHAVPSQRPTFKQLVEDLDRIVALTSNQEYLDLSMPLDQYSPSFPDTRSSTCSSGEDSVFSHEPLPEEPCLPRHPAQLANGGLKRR
T1 sequence (P11362 22-822): as above
T2 sequence (P11362 458-765 C488A/C584S): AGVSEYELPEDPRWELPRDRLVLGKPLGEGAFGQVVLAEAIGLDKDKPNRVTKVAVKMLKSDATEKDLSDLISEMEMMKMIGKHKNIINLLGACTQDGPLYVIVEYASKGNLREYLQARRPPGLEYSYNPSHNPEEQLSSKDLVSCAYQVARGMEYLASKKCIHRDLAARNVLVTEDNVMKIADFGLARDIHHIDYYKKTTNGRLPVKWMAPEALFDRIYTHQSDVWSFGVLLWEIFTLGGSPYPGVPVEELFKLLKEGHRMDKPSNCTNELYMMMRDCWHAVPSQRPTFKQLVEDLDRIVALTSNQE

IC50 [1, 7] [nM]	IC50 [2] [nM]	IC50 [3, 8] [nM]	IC50 [5] [nM]	IC50 [6, 9] [nM]	Structure (SMILES)	IC50 [4] [nM]	IC50 [1] [nM]	IC50 [3] [nM]	IC50 [6] [nM]	IC50 ([4]; upper bound of bin) [nM]
< 1000	100 to 1000				Cc1cc(CN(C)c2nccc(Nc3cc(C)[nH]n3)n2)on1 [Example 2, N-methyl-N-[(3-methylisoxazol-5-yl)methyl]-N′-(5-methyl-2H-pyrazol-3-yl)pyrimidine-2,4-diamine]					
< 1000		< 200	1000 to 10000	< 1000	Cc1cc(CNc2nccc(Nc3cc(CCc4cccc(O)c4)[nH]n3)n2)on1 [Example 41, 3-[2-[5-[[2-[(3-methyl1,2-oxazol-5-yl)methylamino]pyrimidin-4-yl]amino]-1H-pyrazol-3-yl]ethyl]phenol]	< 200				
		< 10000	> 10000	< 10000	Cc1cc(CNc2nccc(Nc3cc(CCc4cccc(OC(F)(F)F)c4)[nH]n3)n2)on1 [Example 51, N-[(3-methyl1,2-oxazol-5-yl)methyl]-N′-[5-[2-[3-(trifluoromethoxy)phenyl]ethyl]-1H-pyrazol-3-yl]pyrimidine-2,4-diamine]					< 10000
< 1000		< 200	> 10000	< 1000	Cc1cccc(CCc2cc(Nc3ccnc(NCc4cc(C)no4)n3)n[nH]2)c1 [Example 52, N-[(3-methyl1,2-oxazol-5-yl)methyl]-N′-[5-[2-(3-methylphenyl)ethyl]-1H-pyrazol-3-yl]pyrimidine-2,4-diamine hydrochloride]	< 200				
		< 1000	> 10000	< 1000	Cc1cc(CNc2nccc(Nc3cc(CCc4cccc(Br)c4)[nH]n3)n2)on1 [Example 53, N′-[5-[2-(3-bromophenyl)ethyl]-1H-pyrazol-3-yl]-N-[(3-methyl1,2-oxazol-5-yl)methyl]pyrimidine-2,4-diamine hydrochloride]	< 200				< 1000
		< 1000	1000 to 10000	< 1000	Cc1cc(CNc2nccc(Nc3cc(CCc4ccc5c(c4)OCO5)[nH]n3)n2)on1 [Example 54, N′-[5-(2-benzo [1,3]dioxol-5-ylethyl)-2H-pyrazol-3-yl]-N-[(3-methyl1,2-oxazol-5-yl)methyl]pyrimidine-2,4-diamine]					< 1000
		< 1000	> 10000	< 10000	Cc1cc(CNc2nccc(Nc3cc(OCc4cccc(OS(C)(=O)=O)c4)[nH]n3)n2)on1 [Example 88, N-[(3-methyl1,2-oxazol-5-yl)methyl]-N′-[5-[(3-methylsulfonyloxyphenyl)methoxy]-2H-pyrazol-3-yl]pyrimidine-2,4-diamine]					< 10000
< 1000		< 200	> 10000	< 1000	CNC(=O)c1cccc(COc2cc(Nc3ccnc(NCc4cc(C)no4)n3)n[nH]2)c1 [Example 91, N-methyl-3-[[5-[[2-[(3-methyl1,2-oxazol-5-yl)methylamino]pyrimidin-4-yl]amino]-1H-pyrazol-3-yl]oxymethyl]benzamide]	< 200				
< 1000		< 1000	> 10000	< 1000	Cc1cc(CNc2nccc(Nc3cc(OCc4cccc(Cl)c4)[nH]n3)n2)on1 [Example 93, N′-[5-[(3-chlorophenyl)methoxy]-1H-pyrazol-3-yl]-N-[(3-methyl1,2-oxazol-5-yl)methyl]pyrimidine-2,4-diamine hydrochloride]	< 200				
< 200		< 1000	> 10000	< 1000	Cc1cc(CNc2nccc(Nc3cc(OCc4cccc(F)c4)[nH]n3)n2)on1 [Example 94, N′-[5-[(3-fluorophenyl)methoxy]-1H-pyrazol-3-yl]-N-[(3-methyl1,2-oxazol-5-yl)methyl]pyrimidine-2,4-diamine hydrochloride]	< 200				
		< 10000	> 10000	< 10000	Cc1cc(CNc2nccc(Nc3cc(OCc4cccc(C(F)(F)F)c4)[nH]n3)n2)on1 [Example 95, N-[(3-methyl1,2-oxazol-5-yl)methyl]-N′-[5-[[3-(trifluoromethyl)phenyl]methoxy]-1H-pyrazol-3-yl]pyrimidine-2,4-diamine hydrochloride]					< 10000
< 200			1000 to 10000	< 200	COC(=O)c1cccc(COc2cc(Nc3ccnc(NCc4cc(C)no4)n3)n[nH]2)c1 [Example 97, Methyl 3-[[5-[[2-[(3-methyl1,2-oxazol-5-yl)methylamino]pyrimidin-4-yl]amino]-1H-pyrazol-3-yl]oxymethyl]benzoate hydrochloride]	< 200				
		< 10000	1000 to 10000	< 10000	COc1cc(COc2cc(Nc3ccnc(NCc4cc(C)no4)n3)n[nH]2)ccc1F [Example 100, N′-[5-[(4-fluoro-3-methoxy-phenyl)methoxy]-1H-pyrazol-3-yl]-N-[(3-methyl1,2-oxazol-5-yl)methyl]pyrimidine-2,4-diamine hydrochloride]					< 10000
		< 1000	> 10000	< 10000	Cc1cc(CNc2nccc(Nc3cc(-c4ccco4)[nH]n3)n2)on1 [Example 105, N′-[5-(2-furyl)-1H-pyrazol-3-yl]-N-[(3-methyl1,2-oxazol-5-yl)methyl]pyrimidine-2,4-diamine]					< 1000
		< 1000	> 10000	< 10000	Cc1cc(CNc2nccc(Nc3cc(CCC4CCOC4)[nH]n3)n2)on1 (centres unmarked) [Example 109, N-[(3-methyl1,2-oxazol-5-yl)methyl]-N′-[5-[2-(oxolan-3-yl)ethyl]-1H-pyrazol-3-yl]pyrimidine-2,4-diamine]					< 10000
		< 200	1000 to 10000	< 1000	Cc1cc(CNc2nccc(Nc3cc(CCc4ccoc4)[nH]n3)n2)on1 [Example 110, N′-[5-[2-(3-furyl)ethyl]-1H-pyrazol-3-yl]-N-[(3-methyl1,2-oxazol-5-yl)methyl]pyrimidine-2,4-diamine]					< 1000
< 200		< 200	1000 to 10000	< 1000	c1coc(CCc2cc(Nc3ccnc(NCc4cc(C5CC5)no4)n3)n[nH]2)c1 [Example 111, N-[(3-cyclopropyl1,2-oxazol-5-yl)methyl]-N′-[5-[2-(2-furyl)ethyl]-2H-pyrazol-3-yl]pyrimidine-2,4-diamine]	< 200				
		< 200	1000 to 10000	< 10000	c1cnc(-c2cc(CNc3nccc(Nc4cc(CCc5ccco5)[nH]n4)n3)on2)nc1 [Example 113, N′-[5-[2-(2-furyl)ethyl]-2H-pyrazol-3-yl]-N-[(3-pyrimidin-2-yl1,2-oxazol-5-yl)methyl]pyrimidine-2,4-diamine]					< 10000
		< 1000	> 10000	< 30000	Cc1cc(CNc2nccc(Nc3cc(CCc4cc(C)nn4C)[nH]n3)n2)on1 [Example 118, N′-[5-[2-(2,5-dimethylpyrazol-3-yl)ethyl]-1H-pyrazol-3-yl]-N-[(3-methyl-1,2-oxazol-5-yl)methyl]pyrimidine-2,4-diamine]					< 30000

Structure (SMILES)	IC50 [1, 7] [nM]	IC50 [2] [nM]	IC50 [3, 8] [nM]	IC50 [5] [nM]	IC50 [6, 9] [nM]	IC50 [4] [nM]	IC50 [1] [nM]	IC50 [3] [nM]	IC50 [6] [nM]	IC50 ([4]; upper bound of bin) [nM]
COc1cc(CCc2cc(Nc3ccnc(NCc4cc(C)no4)n3)n[nH]2)cc(OC)c1 [Example 42, N′-[5-[2-(3,5-dimethoxyphenyl)ethyl]-2H-pyrazol-3-yl]-N-[(3-methyl1,2-oxazol-5-yl)methyl]pyrimidine-2,4-diamine]				1000 to 10000		< 200	< 200	< 200	< 200	
